Reference: ChEMBL document CHEMBL2375245, “Virtual medicinal chemistry: in silico pre-docking functional group transformation for discovery of novel inhibitors of botulinum toxin serotype A light chain” (Bioorg Med Chem Lett, 2013)

Each compound was assayed against T1, Botulinum neurotoxin type A (Clostridium botulinum, UniProt P0DPI0).
T1 sequence (P0DPI0 2-448 limits assumed): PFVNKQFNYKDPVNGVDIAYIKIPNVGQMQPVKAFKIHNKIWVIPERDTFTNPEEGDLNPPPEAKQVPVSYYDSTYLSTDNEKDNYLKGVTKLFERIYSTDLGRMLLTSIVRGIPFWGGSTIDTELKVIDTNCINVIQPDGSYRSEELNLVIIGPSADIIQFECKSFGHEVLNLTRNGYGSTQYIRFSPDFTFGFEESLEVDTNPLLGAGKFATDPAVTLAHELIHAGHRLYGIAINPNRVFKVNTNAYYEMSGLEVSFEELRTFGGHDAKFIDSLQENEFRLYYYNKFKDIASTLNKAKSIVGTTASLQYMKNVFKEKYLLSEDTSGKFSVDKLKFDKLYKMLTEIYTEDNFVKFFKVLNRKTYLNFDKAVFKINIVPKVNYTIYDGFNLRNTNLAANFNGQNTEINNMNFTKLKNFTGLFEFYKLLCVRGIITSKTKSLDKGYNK
Work on `O=C(CN(Cc1ccccc1)Cc1ccccc1)NO` yielded a Ki of 90 µM.

What follows are compounds tested against T1, Botulinum neurotoxin type A (assay: Inhibition of Clostridium botulinum BoNT/A light chain (1 to 429 amino acid) using Abz-Thr-dArg-Ile-Asp-Glu-Ala-Asn-Gln-Arg-Ala-Thr-Lys-Nle-Lys(Dnp)-NH2 as substrate after 10 mins by FRET assay).
`COc1ccc(CN2CCNC(=O)C2CC(=O)NO)cc1OC` (stereo not given) was tested, and the Ki was over 300 µM.
Compound `O=C(CC1Sc2ccccc2NC1=O)NO` (stereo not given) has a Ki of over 300 µM.
With `Cc1nnc(SCc2ccccc2C(=O)NO)n1C` the Ki was over 300 µM.
Compound `O=C(CN1C(=O)c2ccccc2C1c1c[nH]c2ccccc12)NO` (stereo not given) has a Ki of over 300 µM.
With `O=C(CC1C(=O)NCCN1C/C=C/c1ccccc1)NO` (stereo not given) the Ki was over 300 µM.
With `O=C(CCN1C(=O)c2ccccc2C1c1c[nH]c2ccccc12)NO` (stereo not given) the Ki was 194 µM.
`O=C(NC(Cc1c[nH]c2ccccc12)C(=O)NO)c1ccc(Cl)s1` (stereo not given) showed a Ki of over 300 µM.
For `O=C(CCC(=O)N(c1ccccc1)c1ccccc1)NO`, the Ki was over 300 µM.
Work on `Cc1ccc(CN(CC(=O)NO)S(=O)(=O)c2ccccc2)cc1` yielded a Ki of 142 µM.
Compound `Cc1nc(C)c(CCC(=O)NO)c(=O)[nH]1` has a Ki of over 300 µM.
Work on `Cc1nnc(SCC(=O)NO)n1Cc1ccccc1` yielded a Ki of over 300 µM.
`O=C(NC(Cc1c[nH]c2ccccc12)C(=O)NO)c1ccc(F)cc1` (stereo not given) showed a Ki of 212 µM.
For `O=C(CC1SC(N2CCCC2)=NC1=O)NO` (stereo not given), the Ki was over 300 µM.
For `CCC(C)C(C(=O)NO)N1C(=O)c2ccccc2C1=O` (stereo not given), the Ki was 188 µM.
`O=C(Cn1nc(Cc2ccccc2)c2ccccc2c1=O)NO` was tested, and the Ki was 93 µM.
Work on `O=C(COc1ccccc1)NC(Cc1ccccc1)C(=O)NO` (stereo not given) yielded a Ki of over 300 µM.
For `Cc1ccc(C(=O)NC(Cc2c[nH]c3ccccc23)C(=O)NO)o1` (stereo not given), the Ki was over 300 µM.
`Cc1[nH]c2ccccc2c1C1c2ccccc2C(=O)N1CC(=O)NO` (stereo not given) showed a Ki of 142 µM.
With `O=C(NC(Cc1c[nH]c2ccccc12)C(=O)NO)c1ccco1` (stereo not given) the Ki was over 300 µM.
`COc1ccccc1-c1cc(C(=O)NO)[nH]n1` gave a Ki of over 300 µM.
With `O=C(NO)c1ccccc1-c1ccccc1C(=O)Nc1ccccn1` the Ki was 21 µM.
`O=C(Cc1nc(-c2cccnc2)sc1-c1ccc(Cl)cc1)NO` gave a Ki of over 300 µM.
With `Cc1ccc(OCC(=O)NC(Cc2ccccc2)C(=O)NO)cc1` (stereo not given) the Ki was over 300 µM.
`CCCCOc1ccccc1-c1cc(C(=O)NO)[nH]n1` gave a Ki of over 300 µM.
Work on `O=C(CNC(=O)c1ccc2noc(-c3ccccc3)c2c1)NO` yielded a Ki of 77 µM.
In the case of `Cc1cc(C(=O)NC(Cc2c[nH]c3ccccc23)C(=O)NO)c(C)o1` (stereo not given), the Ki is reported as over 300 µM.
With `NC(=O)C1CC(C(=O)NO)=NN1c1ccccc1` (stereo not given) the Ki was over 300 µM.
`O=C(NC(Cc1ccccc1)C(=O)NO)C1CCCCC1` (stereo not given) was tested, and the Ki was over 300 µM.
Compound `O=C(NO)c1cccc(-c2ccc(CNCC3CCCO3)o2)c1` (stereo not given) has a Ki of over 300 µM.
